Data set [1] relates to human citrated plasma. The data set is described as follows: Prolongation of the aPTT time in human citrated plasma (Biomatic B10 coagulometer). The class given is biochemical. Conditions: concentration at which the aPTT time is doubled compared with the control, 37° C. As to the method: were investigated as follows for their effects on prolonging the aPTT time:
Materials: plasma, from human citrated blood. PTT reagent, Boehringer Mannheim (524298), Calcium solution (0.025 mol/l), Behring Werke, Marburg (ORH 056/57), Diethylbarbiturate acetate buffer, Behring Werke, Marburg (ORWH 60/61), Biomatic B10 coagulometer, Desaga, Wiesloch.
The aPTT time was determined using a Biomatic B10 coagulometer made by Messrs. Desaga.
The test substance was placed in the test tubes prescribed by the manufacturer together with 0.1 ml of human citrated plasma and 0.1 ml of PTT reagent. The mixture was incubated for three minutes at 37° C. The clotting reaction was started by the addition of 0.1 ml of calcium solution. The time is measured using the apparatus from the addition of the calcium solution up to the clotting of the mixture. Mixtures to which 0.1 ml of DBA buffer were added were used as the controls.
According to the definition, a dosage-activity curve was used to determine the effective concentration of the substance, i.e. the concentration at which the aPTT time is doubled compared with the control.

The nature of data set [2]: Oral resorption of prodrugs.

On to `Cl.Cl.Cn1c(CNc2ccc(C(=N)N)cc2)nc2cc(C(C)(NCC(=O)O)C(=O)N3CC=CC3)ccc21` (centres unmarked) [C, 2-(4-amidinophenylaminomethyl)-1-methyl-5-[1-(carboxymethylamino)-1-(2,5-dihydropyrrolocarbonyl)-ethyl]-benzimidazole-dihydrochloride], for which the “aPTT time (ED200 in μM)” value in data set [1] was found to be 0.22 µM.

For `CCOC(=O)CNC(C)(C(=O)N1CC=CC1)c1ccc2c(c1)nc(CNc1ccc(C(=N)N)cc1)n2C.Cl.Cl` (centres unmarked) [A, 2-(4-amidinophenylaminomethyl)-1-methyl-5-[1-(ethoxycarbonylmethylamino)-1-(2,5-dihydropyrrolocarbonyl)-ethyl]-benzimidazole-dihydrochloride], the “aPTT time (ED200 in μM)” value in data set [1] is 0.13 µM.

As to `C[C@@H]1CCCN1C(=O)[C@](C)(NCC(=O)O)c1ccc2c(c1)nc(CNc1ccc(C(=N)N)cc1)n2C.Cl.Cl` [B, (R)-2-(4-amidinophenylaminomethyl)-1-methyl-5-[1-(carboxymethylamino)-1-[(R,S)-2-methyl-pyrrolidinocarbonyl]-ethyl]-benzimidazole-dihydrochloride], the “aPTT time (ED200 in μM)” value in data set [1] was 0.12 µM.

Consider `CCCCOC(=O)CN[C@@](C)(C(=O)N1CCCC1)c1ccc2c(c1)nc(CNc1ccc(C(=N)NC(=O)c3ccccc3)cc1)n2C` [Example 2, (R)-2-[4-(N-phenylcarbonylamidino)-phenylaminomethyl]-1-methyl-5-[1-(n-butyloxycarbonylmethylamino)-1-(pyrrolidinocarbonyl)-ethyl]-benzimidazole], for which, in data set [2], the oral resorption result is “good oral resorption”.

Consider `CCCOC(=O)CN[C@@](C)(C(=O)N1CCCC1)c1ccc2c(c1)nc(CNc1ccc(C(=N)NC(=O)c3ccccc3)cc1)n2C` [3(2), (R)-2-[4-(N-phenylcarbonylamidino)-phenylaminomethyl]-1-methyl-5-[1-(n-propyloxycarbonylmethylamino)-1-(pyrrolidinocarbonyl)-ethyl]-benzimidazole], for which the oral resorption result in data set [2] is on record as “good oral resorption”.

For the origin of these results see US6451832B2, “Benzimidazoles with antithrombotic activity” (Boehringer Ingelheim Pharma KG, priority 1999, dated 2002).
